Data as given in ChEMBL document CHEMBL5346973 (J Med Chem, 2023).
Where a SMILES comes first, the peptide text is derived from it.

What was measured:
[1] = biological target: Nicotinic acetylcholine receptor alpha9/alpha10 (Rattus norvegicus, UniProt P43144+Q9JLB5); assay: Antagonist activity at rat alpha9alpha10 nACh receptor expressed in Xenopus oocyte assessed as inhibition of acetylcholine-induced response at -70 mV holding potential by voltage-clamp based electrophysiological assay; type: cell-based
Nicotinic acetylcholine receptor alpha9/alpha10, sequence (P43144 whole entry): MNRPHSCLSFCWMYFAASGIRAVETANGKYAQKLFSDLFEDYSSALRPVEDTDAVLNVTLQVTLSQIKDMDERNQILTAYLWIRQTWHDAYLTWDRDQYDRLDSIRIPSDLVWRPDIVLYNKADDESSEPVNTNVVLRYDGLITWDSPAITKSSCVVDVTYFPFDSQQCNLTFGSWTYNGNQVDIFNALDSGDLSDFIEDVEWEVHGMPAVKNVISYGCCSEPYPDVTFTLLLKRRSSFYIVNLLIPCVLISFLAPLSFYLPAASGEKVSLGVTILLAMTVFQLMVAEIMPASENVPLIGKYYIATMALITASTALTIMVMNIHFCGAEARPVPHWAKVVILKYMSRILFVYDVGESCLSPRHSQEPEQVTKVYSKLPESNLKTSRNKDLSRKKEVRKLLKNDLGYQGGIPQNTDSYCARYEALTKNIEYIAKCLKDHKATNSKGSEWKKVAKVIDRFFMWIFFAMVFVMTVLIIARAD
Nicotinic acetylcholine receptor alpha9/alpha10, sequence (Q9JLB5 whole entry): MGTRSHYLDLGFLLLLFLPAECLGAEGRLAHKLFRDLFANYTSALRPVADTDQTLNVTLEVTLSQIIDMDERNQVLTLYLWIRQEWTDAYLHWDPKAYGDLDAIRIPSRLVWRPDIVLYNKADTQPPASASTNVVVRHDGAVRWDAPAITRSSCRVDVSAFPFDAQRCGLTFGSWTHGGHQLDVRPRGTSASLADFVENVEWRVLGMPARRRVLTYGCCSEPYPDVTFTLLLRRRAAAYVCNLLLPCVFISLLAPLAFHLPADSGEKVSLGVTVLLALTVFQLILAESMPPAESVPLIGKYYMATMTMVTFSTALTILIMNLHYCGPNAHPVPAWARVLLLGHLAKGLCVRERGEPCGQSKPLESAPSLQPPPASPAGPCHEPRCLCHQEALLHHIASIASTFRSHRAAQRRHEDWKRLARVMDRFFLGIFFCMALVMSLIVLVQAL

[2] = biological target: Neuronal acetylcholine receptor subunit alpha-7 (Rattus norvegicus, UniProt Q05941); assay: Antagonist activity at rat alpha7 nACh receptor expressed in Xenopus oocyte assessed as inhibition of acetylcholine-induced response at -70 mV holding potential by voltage-clamp based electrophysiological assay; type: cell-based
Neuronal acetylcholine receptor subunit alpha-7, sequence (Q05941 whole entry): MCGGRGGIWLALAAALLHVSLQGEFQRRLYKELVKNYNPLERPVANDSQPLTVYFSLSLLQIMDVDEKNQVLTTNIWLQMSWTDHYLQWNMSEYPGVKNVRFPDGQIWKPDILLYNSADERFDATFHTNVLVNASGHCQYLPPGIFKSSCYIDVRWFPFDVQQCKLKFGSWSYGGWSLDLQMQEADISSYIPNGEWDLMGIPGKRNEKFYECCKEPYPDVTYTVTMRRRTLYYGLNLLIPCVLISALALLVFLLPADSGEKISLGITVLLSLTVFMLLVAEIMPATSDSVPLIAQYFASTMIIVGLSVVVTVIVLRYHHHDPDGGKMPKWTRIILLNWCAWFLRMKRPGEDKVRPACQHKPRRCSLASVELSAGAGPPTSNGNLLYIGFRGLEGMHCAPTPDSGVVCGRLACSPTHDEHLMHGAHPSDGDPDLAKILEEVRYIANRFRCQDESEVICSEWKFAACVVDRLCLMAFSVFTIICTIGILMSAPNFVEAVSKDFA

## CC[C@H](C)[C@@H]1NC(=O)[C@H](CCCNC(=N)N)NC(=O)[C@H](CCCNC(=N)N)NC(=O)[C@@H](NC(=O)[C@H](Cc2ccc(O)cc2)NC(=O)[C@H](CCCNC(=N)N)NC(=O)[C@H](CCCNC(=N)N)NC(=O)[C@H](CCCNC(=N)N)NC(=O)[C@H](CCCNC(=N)N)NC(=O)[C@H](CC(=O)O)NC(=O)[C@H](Cc2ccc(O)cc2)NC(=O)[C@@H]2CCCN2C(=O)[C@@H](CO)NC(=O)[C@H](C)NC(=O)[C@@H]2CSSC[C@H](NC(=O)[C@@H](N)[C@@H](C)O)C(=O)N[C@@H](CCCNC(=N)N)C(=O)N[C@@H](CO)C(=O)N[C@@H](CO)C(=O)NCC(=O)N[C@@H](CCCNC(=N)N)C(=O)N[C@@H](Cc3ccc(O)cc3)C(=O)N2)CSSC[C@@H](C(=O)N[C@H](C(=O)O)C(C)C)NC(=O)[C@H](C)NC(=O)[C@H](CC(=O)O)NC(=O)[C@H]([C@@H](C)O)NC1=O
[1]
  IC50: 71 nM
[2]
  IC50: 1910 nM

## CC[C@H](C)[C@@H]1NC(=O)[C@H](CCCNC(=N)N)NC(=O)[C@H](CCCNC(=N)N)NC(=O)[C@@H]2CSSC[C@H](NC(=O)[C@H](Cc3ccc(O)cc3)NC(=O)[C@H](CCCNC(=N)N)NC(=O)CNC(=O)[C@H](CO)NC(=O)[C@H](CO)NC(=O)[C@H](CCCNC(=N)N)NC(=O)[C@@H](NC(=O)[C@@H](N)[C@@H](C)O)CSSC[C@@H](C(=O)N[C@H](C(=O)O)C(C)C)NC(=O)[C@H](C)NC(=O)[C@H](CC(=O)O)NC(=O)[C@H]([C@@H](C)O)NC1=O)C(=O)N[C@@H](CCCNC(=N)N)C(=O)N[C@@H](CO)C(=O)N1CCC[C@H]1C(=O)N[C@@H](Cc1ccc(O)cc1)C(=O)N[C@@H](CC(=O)O)C(=O)N[C@@H](CCCNC(=N)N)C(=O)N[C@@H](CCCNC(=N)N)C(=O)N[C@@H](CCCNC(=N)N)C(=O)N[C@@H](C)C(=O)N[C@@H](Cc1ccc(O)cc1)C(=O)N2
[1]
  IC50: 27 nM
[2]
  IC50: > 10000 nM

## CC[C@H](C)[C@@H]1NC(=O)[C@H](CCCNC(=N)N)NC(=O)[C@H](CCCNC(=N)N)NC(=O)[C@@H](NC(=O)[C@H](Cc2ccc(O)cc2)NC(=O)[C@H](C)NC(=O)[C@H](CCCNC(=N)N)NC(=O)[C@H](CCCNC(=N)N)NC(=O)[C@H](CCCNC(=N)N)NC(=O)[C@H](CC(=O)O)NC(=O)[C@H](Cc2ccc(O)cc2)NC(=O)[C@@H]2CCCN2C(=O)[C@H](CO)NC(=O)[C@H](CCCNC(=N)N)NC(=O)[C@@H]2CSSC[C@H](NC(=O)[C@@H](N)[C@@H](C)O)C(=O)N[C@@H](CCCNC(=N)N)C(=O)N[C@@H](CO)C(=O)N[C@@H](CO)C(=O)NCC(=O)N[C@@H](CCCNC(=N)N)C(=O)N[C@@H](Cc3ccc(O)cc3)C(=O)N2)CSSC[C@@H](C(=O)N[C@H](C(=O)O)C(C)C)NC(=O)[C@H](C)NC(=O)[C@H](CC(=O)O)NC(=O)[C@H]([C@@H](C)O)NC1=O
[1]
  IC50: 54 nM
[2]
  IC50: 4520 nM

## CC[C@H](C)[C@@H]1NC(=O)[C@H](CCCNC(=N)N)NC(=O)[C@H](CCCNC(=N)N)NC(=O)[C@@H]2CSSC[C@H](NC(=O)[C@H](Cc3ccc(O)cc3)NC(=O)[C@H](CCCNC(=N)N)NC(=O)CNC(=O)[C@H](CO)NC(=O)[C@H](CO)NC(=O)[C@H](CCCNC(=N)N)NC(=O)[C@@H](NC(=O)[C@@H](N)[C@@H](C)O)CSSC[C@@H](C(=O)N[C@H](C(=O)O)C(C)C)NC(=O)[C@H](C)NC(=O)[C@H](CC(=O)O)NC(=O)[C@H]([C@@H](C)O)NC1=O)C(=O)N[C@@H](C)C(=O)N[C@@H](CO)C(=O)N1CCC[C@H]1C(=O)N[C@@H](Cc1ccc(O)cc1)C(=O)N[C@@H](CC(=O)O)C(=O)N[C@@H](CCCNC(=N)N)C(=O)N[C@@H](CCCNC(=N)N)C(=O)N[C@@H](CCCNC(=N)N)C(=O)N[C@@H](CCCNC(=N)N)C(=O)N[C@@H](Cc1ccc(O)cc1)C(=O)N2 (HELM PEPTIDE1{T.C.R.S.S.G.R.Y.C.A.S.P.Y.D.R.R.R.R.Y.C.R.R.I.T.D.A.C.V}$PEPTIDE1,PEPTIDE1,2:R3-27:R3|PEPTIDE1,PEPTIDE1,9:R3-20:R3$$$V2.0)
[1]
  IC50: 35 nM
[2]
  IC50: 8760 nM

## CC[C@H](C)[C@@H]1NC(=O)[C@H](CCCNC(=N)N)NC(=O)[C@H](CCCNC(=N)N)NC(=O)[C@@H]2CSSC[C@H](NC(=O)[C@H](Cc3ccc(O)cc3)NC(=O)[C@H](C)NC(=O)CNC(=O)[C@H](CO)NC(=O)[C@H](CO)NC(=O)[C@H](CCCNC(=N)N)NC(=O)[C@@H](NC(=O)[C@@H](N)[C@@H](C)O)CSSC[C@@H](C(=O)N[C@H](C(=O)O)C(C)C)NC(=O)[C@H](C)NC(=O)[C@H](CC(=O)O)NC(=O)[C@H]([C@@H](C)O)NC1=O)C(=O)N[C@@H](CCCNC(=N)N)C(=O)N[C@@H](CO)C(=O)N1CCC[C@H]1C(=O)N[C@@H](Cc1ccc(O)cc1)C(=O)N[C@@H](CC(=O)O)C(=O)N[C@@H](CCCNC(=N)N)C(=O)N[C@@H](CCCNC(=N)N)C(=O)N[C@@H](CCCNC(=N)N)C(=O)N[C@@H](CCCNC(=N)N)C(=O)N[C@@H](Cc1ccc(O)cc1)C(=O)N2 (HELM PEPTIDE1{T.C.R.S.S.G.A.Y.C.R.S.P.Y.D.R.R.R.R.Y.C.R.R.I.T.D.A.C.V}$PEPTIDE1,PEPTIDE1,2:R3-27:R3|PEPTIDE1,PEPTIDE1,9:R3-20:R3$$$V2.0)
[1]
  IC50: 48 nM
[2]
  IC50: > 10000 nM

## CC[C@H](C)[C@@H]1NC(=O)[C@H](CCCNC(=N)N)NC(=O)[C@H](CCCNC(=N)N)NC(=O)[C@@H](NC(=O)[C@H](Cc2ccc(O)cc2)NC(=O)[C@H](CCCNC(=N)N)NC(=O)[C@H](CCCNC(=N)N)NC(=O)[C@H](CCCNC(=N)N)NC(=O)[C@H](CCCNC(=N)N)NC(=O)[C@H](CC(=O)O)NC(=O)[C@H](Cc2ccc(O)cc2)NC(=O)[C@@H]2CCCN2C(=O)[C@H](CO)NC(=O)[C@H](CCCNC(=N)N)NC(=O)[C@@H]2CSSC[C@H](NC(=O)[C@@H](N)[C@@H](C)O)C(=O)N[C@@H](CCCNC(=N)N)C(=O)N[C@@H](C)C(=O)N[C@@H](CO)C(=O)NCC(=O)N[C@@H](CCCNC(=N)N)C(=O)N[C@@H](Cc3ccc(O)cc3)C(=O)N2)CSSC[C@@H](C(=O)N[C@H](C(=O)O)C(C)C)NC(=O)[C@H](C)NC(=O)[C@H](CC(=O)O)NC(=O)[C@H]([C@@H](C)O)NC1=O
[1]
  IC50: 14 nM
[2]
  IC50: 1420 nM

## CC[C@H](C)[C@@H]1NC(=O)[C@H](CCCNC(=N)N)NC(=O)[C@H](CCCNC(=N)N)NC(=O)[C@@H](NC(=O)[C@H](Cc2ccc(O)cc2)NC(=O)[C@H](CCCNC(=N)N)NC(=O)[C@H](CCCNC(=N)N)NC(=O)[C@H](CCCNC(=N)N)NC(=O)[C@H](CCCNC(=N)N)NC(=O)[C@H](CC(=O)O)NC(=O)[C@H](C)NC(=O)[C@@H]2CCCN2C(=O)[C@H](CO)NC(=O)[C@H](CCCNC(=N)N)NC(=O)[C@@H]2CSSC[C@H](NC(=O)[C@@H](N)[C@@H](C)O)C(=O)N[C@@H](CCCNC(=N)N)C(=O)N[C@@H](CO)C(=O)N[C@@H](CO)C(=O)NCC(=O)N[C@@H](CCCNC(=N)N)C(=O)N[C@@H](Cc3ccc(O)cc3)C(=O)N2)CSSC[C@@H](C(=O)N[C@H](C(=O)O)C(C)C)NC(=O)[C@H](C)NC(=O)[C@H](CC(=O)O)NC(=O)[C@H]([C@@H](C)O)NC1=O (HELM PEPTIDE1{T.C.R.S.S.G.R.Y.C.R.S.P.A.D.R.R.R.R.Y.C.R.R.I.T.D.A.C.V}$PEPTIDE1,PEPTIDE1,2:R3-9:R3|PEPTIDE1,PEPTIDE1,20:R3-27:R3$$$V2.0)
[1]
  IC50: 11 nM
[2]
  IC50: 3030 nM

## CC[C@H](C)[C@@H]1NC(=O)[C@H](CCCNC(=N)N)NC(=O)[C@H](CCCNC(=N)N)NC(=O)[C@@H](NC(=O)[C@H](Cc2ccc(O)cc2)NC(=O)[C@H](CCCNC(=N)N)NC(=O)[C@H](CCCNC(=N)N)NC(=O)[C@H](CCCNC(=N)N)NC(=O)[C@H](CCCNC(=N)N)NC(=O)[C@H](CC(=O)O)NC(=O)[C@H](Cc2ccc(O)cc2)NC(=O)[C@@H]2CCCN2C(=O)[C@H](CO)NC(=O)[C@H](CCCNC(=N)N)NC(=O)[C@@H]2CSSC[C@H](NC(=O)[C@@H](N)[C@@H](C)O)C(=O)N[C@@H](CCCNC(=N)N)C(=O)N[C@@H](CO)C(=O)N[C@@H](CO)C(=O)N[C@@H](C)C(=O)N[C@@H](CCCNC(=N)N)C(=O)N[C@@H](Cc3ccc(O)cc3)C(=O)N2)CSSC[C@H](C(=O)N[C@H](C(=O)O)C(C)C)NC(=O)[C@H](C)NC(=O)[C@H](CC(=O)O)NC(=O)[C@H]([C@@H](C)O)NC1=O
[1]
  IC50: 4.5 nM
[2]
  IC50: 1460 nM

## CC[C@H](C)[C@@H]1NC(=O)[C@H](CCCNC(=N)N)NC(=O)[C@H](CCCNC(=N)N)NC(=O)[C@@H](NC(=O)[C@H](Cc2ccc(O)cc2)NC(=O)[C@H](CCCNC(=N)N)NC(=O)[C@H](CCCNC(=N)N)NC(=O)[C@H](CCCNC(=N)N)NC(=O)[C@H](CCCNC(=N)N)NC(=O)[C@H](CC(=O)O)NC(=O)[C@H](Cc2ccc(O)cc2)NC(=O)[C@@H]2CCCN2C(=O)[C@H](CO)NC(=O)[C@H](CCCNC(=N)N)NC(=O)[C@@H]2CSSC[C@H](NC(=O)[C@@H](N)[C@@H](C)O)C(=O)N[C@@H](CCCNC(=N)N)C(=O)N[C@@H](CO)C(=O)N[C@@H](CO)C(=O)NCC(=O)N[C@@H](CCCNC(=N)N)C(=O)N[C@@H](Cc3ccc(O)cc3)C(=O)N2)CSSC[C@@H](C(=O)N[C@@H](C)C(=O)O)NC(=O)[C@H](C)NC(=O)[C@H](CC(=O)O)NC(=O)[C@H]([C@@H](C)O)NC1=O
[1]
  IC50: 15 nM
[2]
  IC50: 760 nM

## CC[C@H](C)[C@@H]1NC(=O)[C@H](CCCNC(=N)N)NC(=O)[C@H](CCCNC(=N)N)NC(=O)[C@@H]2CSSC[C@H](NC(=O)[C@H](Cc3ccc(O)cc3)NC(=O)[C@H](CCCNC(=N)N)NC(=O)CNC(=O)[C@H](CO)NC(=O)[C@H](CO)NC(=O)[C@H](CCCNC(=N)N)NC(=O)[C@@H](NC(=O)[C@@H](N)[C@@H](C)O)CSSC[C@@H](C(=O)N[C@H](C(=O)O)C(C)C)NC(=O)[C@H](C)NC(=O)[C@H](CC(=O)O)NC(=O)[C@H]([C@@H](C)O)NC1=O)C(=O)N[C@@H](CCCNC(=N)N)C(=O)N[C@@H](CO)C(=O)N1CCC[C@H]1C(=O)N[C@@H](Cc1ccc(O)cc1)C(=O)N[C@@H](CC(=O)O)C(=O)N[C@@H](CCCNC(=N)N)C(=O)N[C@@H](CCCNC(=N)N)C(=O)N[C@@H](CCCNC(=N)N)C(=O)N[C@@H](CCCNC(=N)N)C(=O)N[C@@H](C)C(=O)N2
[1]
  IC50: 38 nM
[2]
  IC50: 7640 nM
